Assay results published in patent US9682960B2 (priority 2013, dated 2017).
Where “and” joins values, the source holds several entries; their conditions need not be identical. Equal values may be shown once.

Legend:
[1] = test system: Shionogi mouse mammary carcinoma cells; test: In vitro androgenic/antiandrogenic activity: proliferation of Shionogi cells with or without DHT; type: cell-based; conditions: for IC50: Mus musculus, read-out: Shionogi Antiandrogenic Activity IC50, DHT (0.3 nM)-stimulated cell number
[2] = test system: castrated (CX) immature male rats; test: Systemic androgenic (agonistic) activity in orchidectomized (CX) immature male rats; type: in vivo, rat
Method: Immature male rats (Crl:CD(SD)Br) 22 to 24-day old weighting 60-80 g at start of treatment were obtained from Charles-River, Inc. (St-Constant, Quebec, Canada) and housed up to 5 per cage in plastic bins in a temperature (23±1° C.)- and light (12 h light/day, lights on at 7 h15)-controlled environment. The rats were fed rodent chow and tap water ad libitum. […] The day following their arrival, the designed animals were orchidectomized (CX) under Isoflurane anesthesia (Study Day 1) via the scrotal route and were then randomly assigned to groups of 3 to 5 animals. At the time of orchidectomy, one silastic implant of dihydrotestosterone (DHT; 1 cm length of pure DHT in silastic tubing having inner and outer diameter of 0.078 and 0.125 inches, respectively), was inserted subcutaneously in the dorsal area of animals assigned to the evaluation of antiandrogenic activity. In the case of intact animal experiments, the orchidectomy and the silastic implant installation are omitted.
Tested compounds were administered orally once daily for 7 days from Study Day 2 to Study Day 8 at doses generally ranging from 0.1 and 0.5 mg/animal. Compounds were either solubilized in dimethylsulfoxide (DMSO, 10% final concentration) and were administered as a solution/suspension in 0.9% NaCl-1% gelatin or were administered as suspensions in 0.4% aqueous methylcellulose. Animals of the control groups received the corresponding vehicle alone during the 7-day period. Some animals were treated with the antiandrogen Flutamide or Casodex as reference. The animals under isoflurane anesthesia were killed by cervical dislocation on day 9 of the study, approximately 24 h after the last dosing. The ventral prostate, seminal vesicles and bulbocavernosus muscles were rapidly dissected and weighed.
For calculations with intact animals, control DHT is replaced by control intact and the % stimulation is subtracted by 100%. W is the weight of the prostate, seminal vesicles or bulbocavernosus muscles. Discussion

[3] = molecular target: Human Androgen Receptor (Homo sapiens (Human), UniProt P10275); test: Androgen receptor assay: [3H]R1881 displacement, cytosol of HEK-293 cells transfected with hAR (hydroxylapatite assay); type: binding; conditions: for Human Androgen Receptor Binding RBA (%) R1881 = 100: relative binding affinity; for times more potent than OH-flutamide on the human AR (RBA ratio): versus hydroxyflutamide
[4] = 0.1 mg/rat/po, 7 days, bulbocavernosus muscles weight
[5] = 0.1 mg/rat/po, 7 days, seminal vesicles weight
[6] = 0.1 mg/rat/po, 7 days, ventral prostate weight

Human Androgen Receptor, sequence (P10275 whole entry): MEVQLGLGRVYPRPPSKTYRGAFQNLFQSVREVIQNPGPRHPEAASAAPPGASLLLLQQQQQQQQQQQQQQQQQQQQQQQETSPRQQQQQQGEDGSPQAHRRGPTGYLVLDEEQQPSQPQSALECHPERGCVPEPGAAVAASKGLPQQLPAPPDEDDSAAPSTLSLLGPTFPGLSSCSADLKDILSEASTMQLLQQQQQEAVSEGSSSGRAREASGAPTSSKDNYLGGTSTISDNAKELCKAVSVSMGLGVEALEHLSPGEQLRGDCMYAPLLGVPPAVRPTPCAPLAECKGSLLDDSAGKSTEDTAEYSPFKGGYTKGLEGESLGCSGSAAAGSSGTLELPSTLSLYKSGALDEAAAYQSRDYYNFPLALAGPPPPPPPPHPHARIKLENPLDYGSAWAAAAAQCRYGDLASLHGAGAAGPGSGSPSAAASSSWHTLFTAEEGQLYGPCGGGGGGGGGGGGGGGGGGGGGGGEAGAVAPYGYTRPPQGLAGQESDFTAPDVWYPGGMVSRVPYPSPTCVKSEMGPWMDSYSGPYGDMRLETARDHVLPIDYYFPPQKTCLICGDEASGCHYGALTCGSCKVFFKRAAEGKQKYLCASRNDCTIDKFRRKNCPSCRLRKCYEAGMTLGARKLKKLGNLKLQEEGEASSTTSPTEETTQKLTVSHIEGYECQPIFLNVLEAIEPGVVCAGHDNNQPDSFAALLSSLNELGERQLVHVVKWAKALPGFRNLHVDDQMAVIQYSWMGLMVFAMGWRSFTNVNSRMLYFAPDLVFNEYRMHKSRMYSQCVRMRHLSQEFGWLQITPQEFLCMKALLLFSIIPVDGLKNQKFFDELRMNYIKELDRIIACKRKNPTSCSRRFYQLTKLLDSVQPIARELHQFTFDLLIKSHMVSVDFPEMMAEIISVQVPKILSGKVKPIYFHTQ

SMILES | IC50 [1] | CX Agonistic activity % Stimulation Bulbo [2, 4] | CX Agonistic activity % Stimulation SV [2, 5] | CX Agonistic activity % Stimulation Prostate [2, 6] | Human Androgen Receptor Binding RBA (%) R1881 = 100 ([3]; […]) | Human Androgen Receptor Binding RBA (%) R1881 = 100 ([3]; transfected cells) | stimulation at 10^−7M on basal Shionogi cell proliferation (in words) ([1]; basal (no DHT), 10^−7M) | CX Agonistic activity % Stimulation Bulbo ([2]; 0.02 mg/rat po) | CX Agonistic activity % Stimulation Prostate ([2]; 0.02 mg/rat po) | CX Agonistic activity % Stimulation SV ([2]; 0.02 mg/rat po) | times more potent than OH-flutamide on the human AR (RBA ratio) [3] | % of stimulation at 10^−7M on basal Shionogi cells ([1]; basal (no DHT), 10^−7M)
Cc1c(N2C(=O)C(C)(C)N(CCCOc3ccc(-c4ccnc(F)c4)cc3)C2=S)ccc(C#N)c1Cl [EM-8922] | 79 nM | 134% | 54% | 52% | 414% | – | – | – | – | – | – | –
Cc1c(N2C(=O)C(C)(C)N(CCCOc3ccc(-c4ccncc4)c(C#N)c3)C2=S)ccc(C#N)c1Cl [EM-8933] | 110 nM | 136% | 43% | 46% | 134% | – | – | – | – | – | – | –
Cc1c(N2C(=O)C(C)(C)N(CCCOc3ccc(-c4ccncc4F)cc3)C2=S)ccc(C#N)c1C(F)(F)F [EM-8974] | 112 nM | 139% | 24% | 61% | 41.9% | – | – | – | – | – | – | –
Cc1c(N2C(=O)C(C)(C)N(CCCOc3ccc(-c4ccncc4Cl)cc3)C2=S)ccc(C#N)c1Cl [EM-8977] | 100 nM | 194% | 65% | 72% | 89.8% | – | – | – | – | – | – | –
CC1(C)C(=O)N(c2ccc(C#N)c(C(F)(F)F)c2)C(=S)N1CCCOc1ccc2ncccc2c1 [EM-8990] | 9.7 nM | 3% | 1% | 0% | 53.6% | – | – | – | – | – | – | –
CC1(C)C(=O)N(c2ccc(C#N)c(C(F)(F)F)c2)C(=S)N1CCCOc1ccc2cccnc2c1 [EM-8991] | 38.5 nM | 1% | 2% | 2% | 28.5% | – | – | – | – | – | – | –
Cc1c(N2C(=O)C(C)(C)N(CCCOc3ccc(-c4ccc(N(C)C)nc4)cc3)C2=S)ccc(C#N)c1Cl [EM-8993] | 59.5 nM | 123% | 61% | 50% | – | 4.8% | – | – | – | – | – | –
Cc1c(N2C(=O)C(C)(C)N(CCCOc3ccc(-c4ccc(N(C)C)nc4)c(F)c3)C2=S)ccc(C#N)c1Cl [EM-8996] | 100 nM | 131% | 53% | 49% | – | 48.9% | – | – | – | – | – | –
CC1(C)C(=O)N(c2ccc(C#N)c(C(F)(F)F)c2)C(=S)N1CCCOc1ccc2ncncc2c1 [EM-9010] | 10 nM | 5% | 0% | 0% | 29.5% | – | – | – | – | – | – | –
CC1(C)C(=O)N(c2ccc(C#N)c(C(F)(F)F)c2)C(=S)N1CCCOc1ccc2cnccc2c1 [EM-9021] | 5 nM | 9% | 0% | 1% | 166.8% | – | – | – | – | – | – | –
CC1(C)C(=O)N(c2ccc(C#N)c(C(F)(F)F)c2)C(=S)N1CCCOc1ccc2c(ccc[n+]2[O-])c1 [EM-9028] | 2.6 nM | 1% | 2% | 2% | – | 25.3% | none of these compounds has any activity | – | – | – | – | –
Cc1c(N2C(=O)C(C)(C)N(CCCOc3ccc(-c4cc[n+]([O-])cc4)c(Cl)c3)C2=S)ccc(C#N)c1Cl [EM-9036] | > 100 nM | – | – | – | 131% | – | – | 142 (0.02 mg/rat) % | 24 (0.02 mg/rat) % | 24 (0.02 mg/rat) % | – | –
Cc1ccc2cc(OCCCN3C(=O)N(c4ccc(C#N)c(C(F)(F)F)c4)C(=O)C3(C)C)ccc2n1 [EM-9090] | 33.1 nM | 11% | 0% | 1% | 2.5% | – | – | – | – | – | – | –
Cc1ccc2cc(OCCCN3C(=O)N(c4ccc(C#N)c(C(F)(F)F)c4)C(=O)C3(C)C)ccc2[n+]1[O-] [EM-9093] | 23.1 nM | 9% | 0% | 0% | 0.6% | – | – | – | – | – | – | –
Cc1c(N2C(=O)N(CCCOc3ccc(-c4ccncc4)c(F)c3)C(C)(C)C2=O)ccc(C#N)c1Cl [EM-9253] | 29.9 nM | 114±18% and 114 ± 18 (n = 2) % | 18 ± 2 (n = 2) % | 34 ± 1 (n = 2) % | 125% | – | – | – | – | – | 595 times | –
Cc1c(N2C(=O)N(CCCOc3ccc(-c4cc[n+]([O-])cc4)c(F)c3)C(C)(C)C2=O)ccc(C#N)c1Cl [EM-9254] | 54.8 nM | 101 ± 5 (n = 3) % | 23 ± 1 (n = 3) % | 47 ± 6 (n = 3) % | – | 38.8% | – | – | – | – | – | –
Cc1c(N2C(=O)N(CCCOc3ccc(-c4ccncc4)c(Cl)c3)C(C)(C)C2=O)ccc(C#N)c1Cl [EM-9290] | 64.8 nM | 88±2% and 88 ± 12 (n = 2) % | 16 ± 2 (n = 2) % | 39 ± 6 (n = 2) % | – | 197% | – | – | – | – | 938 times | 25%
Cc1c(N2C(=O)N(CCCOc3ccc(-c4cc[n+]([O-])cc4)c(Cl)c3)C(C)(C)C2=O)ccc(C#N)c1Cl [EM-9291] | 75.5 nM | 91 ± 2 (n = 2) % | 21 ± 7 (n = 2) % | 47 ± 7 (n = 2) % | – | 64.2% | – | – | – | – | – | –
Cc1c(N2C(=O)N(CCCOc3ccc(-c4ccncc4)cc3F)C(C)(C)C2=O)ccc(C#N)c1Cl [EM-9297] | 72.8 nM | 120% | 26% | 31% | 101% | – | – | – | – | – | – | –
Cc1c(N2C(=O)N(CCCOc3ccc(-c4ccncc4)cc3)C(C)(C)C2=O)ccc(C#N)c1Cl [EM-9300] | 62.2 nM | 127 ± 8 (n = 2) % | 25 ± 2 (n = 2) % | 40 ± 3 (n = 2) % | 77.8% | – | – | – | – | – | – | –
Cc1c(N2C(=O)N(CCCOc3ccc(-c4cc[n+]([O-])cc4)cc3F)C(C)(C)C2=O)ccc(C#N)c1Cl [EM-9301] | 55.7 nM | 104 ± 17 (n = 2) % | 29 ± 2 (n = 2) % | 42 ± 1 (n = 2) % | 34.6% | – | – | – | – | – | – | –
Cc1c(N2C(=O)N(CCCOc3ccc4ccc[n+]([O-])c4c3)C(C)(C)C2=O)ccc(C#N)c1Cl [EM-9302] | 110 nM | 57% | 8% | 29% | 1.3% | – | – | – | – | – | – | –
Cc1c(N2C(=O)N(CCCOc3ccc(-c4cc[n+]([O-])cc4)cc3)C(C)(C)C2=O)ccc(C#N)c1Cl [EM-9305] | 32.3 nM | 110 ± 5 (n = 2) % | 28 ± 3 (n = 2) % | 34 ± 5 (n = 2) % | 26.2% | – | – | – | – | – | – | –
Cc1c(N2C(=O)N(CCCOc3ccc(-c4ccncc4)cc3C(F)(F)F)C(C)(C)C2=O)ccc(C#N)c1Cl [EM-9309] | 66.9 nM | 107±9% and 107 ± 9 (n = 2) % | 24 ± 2 (n = 2) % | 36 ± 1 (n = 2) % | 157% | – | – | – | – | – | 748 times | 13%
Cc1c(N2C(=O)N(CCCOc3ccc(-c4ccncc4Cl)cc3)C(C)(C)C2=O)ccc(C#N)c1Cl [EM-9310] | 60 nM | 109 ± 9 (n = 2) % | 18 ± 2 (n = 2) % | 44 ± 7 (n = 2) % | 92.8% | – | – | – | – | – | – | –
